Source: patent US20110098288A1, “SULFONAMIDES AS ZAP-70 INHIBITORS” (priority 2008, published 2011)

What was measured:
[1] = molecular target: T1, ZAP-70 (Homo sapiens, UniProt P43403); test: ZAP-70 kinobeads assay; format: binding; conditions: competition with immobilized aminopyrido-pyrimidine ligand 24 in cell lysate; ZAP-70 detected by dot blot
T1 construct: endogenous in cells; host or cells: cell lysate
T1 sequence (P43403 1-619): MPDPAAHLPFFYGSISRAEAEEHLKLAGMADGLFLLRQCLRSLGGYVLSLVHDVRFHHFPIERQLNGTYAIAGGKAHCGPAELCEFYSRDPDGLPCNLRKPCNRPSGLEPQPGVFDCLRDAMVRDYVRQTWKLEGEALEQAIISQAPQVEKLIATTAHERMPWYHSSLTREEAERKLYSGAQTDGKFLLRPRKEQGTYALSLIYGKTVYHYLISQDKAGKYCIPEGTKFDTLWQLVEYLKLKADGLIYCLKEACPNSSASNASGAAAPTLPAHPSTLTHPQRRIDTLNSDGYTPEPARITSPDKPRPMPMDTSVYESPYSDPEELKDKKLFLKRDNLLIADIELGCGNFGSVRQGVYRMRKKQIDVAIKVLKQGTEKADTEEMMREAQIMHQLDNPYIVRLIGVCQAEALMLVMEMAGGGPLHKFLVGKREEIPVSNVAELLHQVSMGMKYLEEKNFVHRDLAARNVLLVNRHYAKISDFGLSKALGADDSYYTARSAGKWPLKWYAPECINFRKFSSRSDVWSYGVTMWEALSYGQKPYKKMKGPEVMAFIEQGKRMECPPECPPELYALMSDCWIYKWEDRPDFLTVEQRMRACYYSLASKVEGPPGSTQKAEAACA
Summary of the method: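 Competition binding format: compounds compete with a bead-immobilized aminopyrido-pyrimidine ligand for ZAP-70 in cell lysate. After bead separation and elution, bound ZAP-70 measured by antibody dot blot with infrared read-out.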

[2] = tested on: Jurkat cells; test: Calcium release assay (Fluo-4 flow cytometry after anti-CD3 stimulation); format: cell-based; conditions: Homo sapiens, Jurkat cell line J77, anti-CD3 activation, read-out: IC50 (Calcium ion release in cells)
Method: Compounds of the present invention were tested in a Calcium release assay as described below.
The development of fluorescent probes makes it possible to measure the concentration of intracellular free Calcium ions in single living cells. Cells are first loaded with a cell-permeable Ca^2+-sensitive dye, then the test compound is added. Finally, cells are activated through the T cell receptor with an anti-CD3 antibody shortly before data acquisition on the flow cytometer. The release of Ca^2+ is measured as a function of time after cell stimulation. This protocol describes the flow cytometry method using the Fluo-3 and Fluo-4 dyes (Minta et al., 1989, J. Biol. Chem. 264(14):8171-8178) to measure the intracellular Ca^2+ concentration in Jurkat cells (see also June et al., 1997, Measurement of intracellular calcium ions by flow cytometry. In: Current Protocols in Cytometry (1997) Unit 9.8.1-9.8.19, John Wiley & Sons, Inc.).
In general, cells should be handled in the shortest time possible to assure their stability. Therefore the preparation of all materials in advance is highly recommended as well as using any incubation or centrifugation time to prepare the next steps (e.g. preparing compound dilution or starting the flow cytometer).
1) Prepare a work plan indicating the number of samples to be analyzed including controls. 2) Cell harvest: Centrifuge 50 to 100 ml of a Jurkat cell culture for 5 minutes at 1100 rpm. Discard the supernatant, pool the resuspended cell pellets in a single 50 ml Falcon tube, and fill up to 50 ml with PBS—CaCl2 (without FCS). Centrifuge again sample again. 3) Resuspend cell pellet with PBS—CaCl2 (without FCS) to achieve a concentration not lower than 10×10^6 cells/ml. Prepare an adequate dilution to evaluate the cell concentration and count the cells. 4) Separate the volume of cells needed to be loaded (for example […] for 20 samples) in a 50 ml Falcon tube. Fill up with PBS—CaCl2 to 900 μl for 107 cells. 5) Prepare in the dark a 1:1 mix of FLUO-4 (1 mM)+Pluronic F-127 (20%). 5 μl of Fluo-4 are needed per 107 cells. 6) Prepare a 1/10 dilution of this mix with PBS—CaCl2 (in the dark; for example 5 μl Fluo-4+5 μl F-127 completed to 100 μl). 7) Add the dye solution to the cells. […] 8) Incubate the sample for 30 minutes in a cell incubator (37° C., 5% CO2). Mix from time to time. 9) During this time prepare the adequate test compound dilution in PBS—CaCl2 (with 10% FCS). The solution should be 10 times more concentrated than the desired final concentration. Vortex each dilution. Prepare also the antibody dilutions: anti-CD3 (1/200) and GAM (1/25). 10) Label FACS tubes and distribute in the corresponding tube 30 μl of the compound dilution or only buffer for the control tubes. 11) After 30 minutes of incubation wash the cells twice in PBS—CaCl2 (with 10% FCS). During the washing steps make sure that the flow cytometer is already “ON” in order to warm the laser. 12) Resuspend the cell pellet in PBS—CaCl2 (with 10% FCS) at a concentration of 1.5×10^6 cells/ml. 13) Distribute 300 μl of cell suspension into the FACS tubes and mix gently. The compound incubation is starting. Keep samples at room temperature in the dark. 14) Open the settings of the cytometer. It is advised to have a template ready which is used for all measurements. Settings of the machine should also be the same from one experiment to the other which permits to evaluate the reproducibility of the cell preparation. 15) In Setup modus control your cell preparation on the cytometer. Cells should fit in the pre-defined gates. 16) During the compound incubation time, check also that cells are responding to the anti-CD3 activation as expected. Set a timer at 8 sec. Add 6 μl of anti-CD3 dilution (0.2 μg/ml final) and mix gently. Add 1 μl of GAM dilution (0.75 μg/ml final) and mix gently. Incubate the samples in water bath at 37° C. while starting timer. After 8 seconds of incubation, acquire data at medium speed for 200 seconds. […]

SMILES | IC50 [1] [µM] | IC50 [2] [µM]
COc1cc(Nc2ncc(F)c(Nc3ccccc3NS(C)(=O)=O)n2)cc(OC)c1OC [Example 1, N-(2-(5-fluoro-2-(3,4,5-trimethoxyphenylamino)pyrimidin-4-ylamino)phenyl)methanesulfonamide] | 0.1 to 1 | 0.1 to 1
CS(=O)(=O)Nc1ccccc1Nc1nc(Nc2ccc(F)cc2)ncc1F [Example 2, N-(2-(5-fluoro-2-(4-fluorophenylamino)pyrimidin-4-ylamino)phenyl)methanesulfonamide] | 1 to 10 | 0.1 to 1
Cc1cc(C)cc(Nc2ncc(F)c(Nc3ccccc3NS(C)(=O)=O)n2)c1 [Example 3, N-(2-(2-(3,5-dimethylphenylamino)-5-fluoropyrimidin-4-ylamino)phenyl)methanesulfonamide] | 0.1 to 1 | 0.1 to 1
Cn1ccc(-c2cccc(Nc3ncc(F)c(Nc4ccccc4NS(C)(=O)=O)n3)c2)n1 [Example 201, N-(2-(5-fluoro-2-(3-(1-methyl-1H-pyrazol-3-yl)phenylamino)pyrimidin-4-ylamino)phenyl)methanesulfonamide] | 1 to 10 | 
CS(=O)(=O)Nc1ccccc1Nc1nc(Nc2cccc(-n3cnnn3)c2)ncc1Cl [Example 203, N-(2-(2-(3-(1H-tetrazol-1-yl)phenylamino)-5-chloropyrimidin-4-ylamino)phenyl)methanesulfonamide] | 0.1 to 1 | 
CS(=O)(=O)Nc1ccccc1Nc1nc(Nc2ccc(C#N)cc2)ncc1Cl [Example 204, N-(2-(5-chloro-2-(4-cyanophenylamino)pyrimidin-4-ylamino)phenyl)methanesulfonamide] | 1 to 10 | 
CS(=O)(=O)Nc1ccccc1Nc1nc(Nc2cccc(C#N)c2)ncc1Cl [Example 205, N-(2-(5-chloro-2-(3-cyanophenylamino)pyrimidin-4-ylamino)phenyl)methanesulfonamide] | 0.1 to 1 | 
CS(=O)(=O)Nc1ccccc1Nc1nc(Nc2ccc(-n3cccn3)cc2)ncc1Cl [Example 207, N-(2-(2-(4-(1H-pyrazol-1-yl)phenylamino)-5-chloropyrimidin-4-ylamino)phenyl)methanesulfonamide] | 0.1 to 1 | 
Cc1cc(C)n(-c2cccc(Nc3ncc(Cl)c(Nc4ccccc4NS(C)(=O)=O)n3)c2)n1 [Example 209, N-(2-(5-chloro-2-(3-(3,5-dimethyl-M-pyrazol-1-yl)phenylamino)pyrimidin-4-ylamino)phenyl)methanesulfonamide] | 1 to 10 | 
CS(=O)(=O)Nc1ccccc1Nc1nc(Nc2cccc(-n3cncn3)c2)ncc1Cl [Example 211, N-(2-(2-(3-(1H-1,2,4-triazol-1-yl)phenylamino)-5-chloropyrimidin-4-ylamino)phenyl)methanesulfonamide] | 0.1 to 1 | 
CS(=O)(=O)Nc1ccccc1Nc1nc(Nc2ccc(-n3cncn3)cc2)ncc1Cl [Example 212, N-(2-(2-(4-(1H-1,2,4-triazol-1-yl)phenylamino)-5-chloropyrimidin-4-ylamino)phenyl)methanesulfonamide] | 0.1 to 1 | 
CS(=O)(=O)Nc1ccccc1Nc1nc(Nc2cccc(-n3cnnn3)c2)ncc1Br [Example 216, N-(2-(2-(3-(1H-tetrazol-1-yl)phenylamino)-5-bromopyrimidin-4-ylamino)phenyl)methanesulfonamide] | 0.1 to 1 | 

Next, values leading:

IC50 [1] [µM] | IC50 [2] [µM] | SMILES
1 to 10 | 0.1 to 1 | CS(=O)(=O)Nc1ccccc1Nc1nc(Nc2ccc3c(c2)OCCO3)ncc1F [Example 4, N-(2-(2-(2,3-dihydrobenzo[b][1,4]dioxin-6-ylamino)-5-fluoropyrimidin-4-ylamino)phenyl)methanesulfonamide]
0.1 to 1 | 0.1 to 1 | CN(C)c1ccc(Nc2ncc(F)c(Nc3ccccc3NS(C)(=O)=O)n2)cc1 [Example 7, N-(2-(2-(4-(dimethylamino)phenylamino)-5-fluoropyrimidin-4-ylamino)phenyl)methanesulfonamide]
 | 0.1 to 1 | COc1cc(Nc2ncc(F)c(Nc3ccc(NS(=O)(=O)c4ccccc4)cc3)n2)cc(OC)c1OC [Example 44, N-(4-(5-fluoro-2-(3,4,5-trimethoxyphenylamino)pyrimidin-4-ylamino)phenyl)benzenesulfonamide]
 | 0.1 to 1 | COc1cc(Nc2ncc(F)c(Nc3cccc(NS(=O)(=O)c4cccnc4)c3)n2)cc(OC)c1OC [Example 58, N-(3-(5-fluoro-2-(3,4,5-trimethoxyphenylamino)pyrimidin-4-ylamino)phenyl)pyridine-3-sulfonamide]
1 to 10 |  | Cc1ccc(C)n1-c1cccc(Nc2ncc(F)c(Nc3ccccc3NS(C)(=O)=O)n2)c1 [Example 202, N-(2-(2-(3-(2,5-dimethyl-1H-pyrrol-1-yl)phenylamino)-5-fluoropyrimidin-4-ylamino)phenyl)methanesulfonamide]
0.1 to 1 |  | CS(=O)(=O)Nc1ccccc1Nc1nc(Nc2cccc(-n3cccn3)c2)ncc1Cl [Example 206, N-(2-(2-(3-(1H-pyrazol-1-yl)phenylamino)-5-chloropyrimidin-4-ylamino)phenyl)methanesulfonamide]
0.1 to 1 |  | Cc1nc(-c2cccc(Nc3ncc(Cl)c(Nc4ccccc4NS(C)(=O)=O)n3)c2)no1 [Example 208, N-(2-(5-chloro-2-(3-(5-methyl-1,2,4-oxadiazol-3-yl)phenylamino)pyrimidin-4-ylamino)phenyl)methanesulfonamide]
0.1 to 1 |  | Cc1cc(C)n(-c2ccc(Nc3ncc(Cl)c(Nc4ccccc4NS(C)(=O)=O)n3)cc2)n1 [Example 210, N-(2-(5-chloro-2-(4-(3,5-dimethyl-1H-pyrazol-1-yl)phenylamino)pyrimidin-4-ylamino)phenyl)methanesulfonamide]
0.1 to 1 |  | Cc1n[nH]c(-c2cccc(Nc3ncc(Cl)c(Nc4ccccc4NS(C)(=O)=O)n3)c2)n1 [Example 213, N-(2-(5-chloro-2-(3-(3-methyl-1H-1,2,4-triazol-5-yl)phenylamino)pyrimidin-4-ylamino)phenyl)methanesulfonamide]
0.1 to 1 |  | CS(=O)(=O)Nc1ccccc1Nc1nc(Nc2ccc(-n3cnnn3)cc2)ncc1Cl [Example 214, N-(2-(2-(4-(1H-tetrazol-1-yl)phenylamino)-5-chloropyrimidin-4-ylamino)phenyl)methanesulfonamide]
